# Test results: patent US9029337B2, “Modulation of factor 7 expression” (Isis Pharmaceuticals, Inc., priority 2007, dated 2015)
# Strand notation (5' to 3'): a small letter for the sugar, then the base; units joined by * are phosphorothioate-linked, units joined directly phosphodiester-linked; [ ] holds rarer units or linkages, { } end groups; capitals alone tell only the bases. e = 2'-O-(2-methoxyethyl) (MOE); [5mC] = 5-methylcytosine; d = 2'-deoxy (DNA)
# Tested on: human Factor 7 mRNA
# Test: Antisense inhibition of human Factor 7 mRNA in HepB3 cells, 50 nM antisense oligonucleotide, lipofectin
# Assay type: cell-based
# Conditions: Table 13 (microwalk), 50 nM, lipofectin, approximately 24 hours
# In short: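 HepB3 cells were transfected by lipofectin with 50 nM antisense oligonucleotide and harvested after about 24 h. Factor 7 mRNA was measured by real-time RT-PCR (primer probe set RTS 2927 in some runs), normalized to RIBOGREEN total RNA, and reported as percent inhibition versus untreated control.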
row,Substance,% Inhibition
1,416482 (antisense e[5mC]*eA*eT*eG*eG*dT*dG*dA*dT*dG*d[5mC]*dT*dT*d[5mC]*dT*eG*eA*eA*eT*eT) [compound 416482],64%

# Same assay, conditions: lipofectin, 50 nM antisense oligonucleotide, approximately 24 hours, Factor 7 mRNA by real-time RT-PCR (RTS 2927), relative to untreated control
row,Substance,% Inhibition
1,416453 (antisense eG*eA*eT*eT*eT*dT*dG*dT*d[5mC]*dG*dA*dA*dA*d[5mC]*dA*eG*eT*eG*eG*eG) [compound 416453],45%
2,416454 (antisense e[5mC]*eG*eT*eG*e[5mC]*dT*d[5mC]*dG*d[5mC]*d[5mC]*d[5mC]*dA*dG*d[5mC]*dA*e[5mC]*e[5mC]*eG*e[5mC]*eG) [compound 416454],56%
3,416456 (antisense e[5mC]*eT*eG*e[5mC]*eG*d[5mC]*d[5mC]*dA*d[5mC]*d[5mC]*d[5mC]*dG*d[5mC]*d[5mC]*dG*eG*e[5mC]*eT*e[5mC]*eT) [compound 416456],58%
4,416457 (antisense eG*eG*eA*eT*eG*dA*dT*dG*dA*d[5mC]*d[5mC]*dT*dG*d[5mC]*dG*e[5mC]*e[5mC]*eA*e[5mC]*e[5mC]) [compound 416457],48%
5,416458 (antisense eG*eG*e[5mC]*eG*eG*dA*dG*d[5mC]*dA*dG*d[5mC]*dG*d[5mC]*dG*dA*eT*eG*eT*e[5mC]*eG) [compound 416458],29%
6,416459 (antisense eT*eG*eG*eT*e[5mC]*dA*dG*dT*dG*dA*dG*dG*dA*d[5mC]*d[5mC]*eA*e[5mC]*eG*eG*eG) [compound 416459],23%
7,416460 (antisense e[5mC]*eA*e[5mC]*e[5mC]*eA*d[5mC]*dA*dT*dG*dG*dT*d[5mC]*dA*dG*dT*eG*eA*eG*eG*eA) [compound 416460],49%
8,416461 (antisense eG*eA*eA*eG*e[5mC]*dG*d[5mC]*dA*d[5mC]*dG*dA*dA*dG*dG*d[5mC]*e[5mC]*eA*eG*e[5mC]*eG) [compound 416461],43%
9,416462 (antisense eG*eG*e[5mC]*eA*eG*dT*d[5mC]*d[5mC]*dT*dG*dG*dG*dT*d[5mC]*dA*eT*e[5mC]*eA*eG*e[5mC]) [compound 416462],60%
10,416463 (antisense eT*eG*e[5mC]*eT*eG*d[5mC]*dA*dG*dG*d[5mC]*dA*dG*dT*d[5mC]*d[5mC]*eT*eG*eG*eG*eT) [compound 416463],39%
11,416464 (antisense eA*eA*e[5mC]*eA*eT*dG*dT*dA*d[5mC]*dT*d[5mC]*d[5mC]*dG*dT*dG*eA*eT*eA*eT*eT) [compound 416464],53%
12,416465 (antisense e[5mC]*eA*e[5mC]*eT*eG*dT*d[5mC]*d[5mC]*d[5mC]*d[5mC]*d[5mC]*dT*dT*dG*d[5mC]*eA*eG*eG*eA*eG) [compound 416465],51%
13,416466 (antisense eT*eG*eT*eG*eG*dG*d[5mC]*d[5mC]*dT*d[5mC]*d[5mC]*dA*d[5mC]*dT*dG*eT*e[5mC]*e[5mC]*e[5mC]*e[5mC]) [compound 416466],57%
14,416467 (antisense e[5mC]*e[5mC]*e[5mC]*eT*eG*dG*d[5mC]*d[5mC]*d[5mC]*d[5mC]*dA*dG*d[5mC]*dT*dG*eA*e[5mC]*eG*eA*eT) [compound 416467],55%
15,416468 (antisense eT*eG*eG*eG*eA*dG*dA*d[5mC]*d[5mC]*d[5mC]*dT*dG*dG*dT*dG*eT*eA*e[5mC]*eA*e[5mC]) [compound 416468],46%
16,416469 (antisense eG*e[5mC]*eA*eG*e[5mC]*d[5mC]*dA*d[5mC]*dT*d[5mC]*dG*dA*dT*dG*dT*eA*e[5mC]*eT*eG*eG) [compound 416469],55%
17,416470 (antisense eG*e[5mC]*eT*eT*eT*dT*dG*d[5mC]*dA*dG*d[5mC]*d[5mC]*dA*d[5mC]*dT*e[5mC]*eG*eA*eT*eG) [compound 416470],39%

row,Substance,% Inhibition
1,416471 (antisense eT*eG*eA*eG*e[5mC]*dT*dT*dT*dT*dG*d[5mC]*dA*dG*d[5mC]*d[5mC]*eA*e[5mC]*eT*e[5mC]*eG) [compound 416471],62%
2,416473 (antisense e[5mC]*e[5mC]*e[5mC]*eT*eG*d[5mC]*d[5mC]*d[5mC]*d[5mC]*dT*d[5mC]*dT*dG*dT*d[5mC]*e[5mC]*eA*eG*e[5mC]*eG) [compound 416473],61%
3,416474 (antisense eT*eG*eT*e[5mC]*eT*dG*d[5mC]*d[5mC]*dT*d[5mC]*d[5mC]*dA*dG*dG*dA*e[5mC]*eA*eA*e[5mC]*e[5mC]) [compound 416474],40%
4,416475 (antisense e[5mC]*eT*e[5mC]*eA*eG*d[5mC]*dT*dG*dG*dG*d[5mC]*dT*dG*dT*d[5mC]*eT*eG*e[5mC]*e[5mC]*eT) [compound 416475],70%
5,416476 (antisense eG*e[5mC]*eA*eG*eG*dT*dG*dG*dG*d[5mC]*dT*dT*dG*dG*d[5mC]*eT*eG*eA*eA*eG) [compound 416476],58%
6,416478 (antisense eG*eT*e[5mC]*eT*e[5mC]*d[5mC]*dA*dG*d[5mC]*dA*dA*dT*dG*dA*dA*eG*eG*e[5mC]*eA*eG) [compound 416478],44%
7,416479 (antisense eG*eA*e[5mC]*eA*eG*d[5mC]*dA*d[5mC]*dA*d[5mC]*dA*dT*dG*dG*dA*eG*eT*e[5mC]*eA*eG) [compound 416479],56%
8,416480 (antisense eA*eA*eG*eT*eG*dA*dG*dA*dG*d[5mC]*dT*dA*dA*dA*d[5mC]*eA*eA*e[5mC]*e[5mC]*eG) [compound 416480],25%
9,416481 (antisense eA*eG*eA*eT*eG*dA*dT*dA*dA*dT*dG*dG*dA*dT*dA*eA*eG*eA*eA*e[5mC]) [compound 416481],15%
10,416482 (antisense e[5mC]*eA*eT*eG*eG*dT*dG*dA*dT*dG*d[5mC]*dT*dT*d[5mC]*dT*eG*eA*eA*eT*eT) [compound 416482],64%
11,416483 (antisense eT*eG*eT*eG*eA*dG*dG*dG*dT*dT*d[5mC]*dA*dT*dT*dT*e[5mC]*eA*eG*eT*eG) [compound 416483],22%
12,416484 (antisense eT*eA*e[5mC]*eA*eG*d[5mC]*d[5mC]*dT*d[5mC]*dA*dA*dA*d[5mC]*dA*dT*e[5mC]*eT*eA*eT*e[5mC]) [compound 416484],0%
13,416485 (antisense eG*eA*eG*e[5mC]*eT*dA*d[5mC]*dA*dG*d[5mC]*d[5mC]*dT*d[5mC]*dA*dA*eA*e[5mC]*eA*eT*e[5mC]) [compound 416485],7%
14,416486 (antisense eA*eT*eT*eG*eA*d[5mC]*dA*dA*dG*dG*dG*d[5mC]*dT*dG*dT*eG*eG*e[5mC]*eA*eG) [compound 416486],12%
15,416487 (antisense eG*e[5mC]*eA*eG*eG*dT*dG*d[5mC]*dT*d[5mC]*d[5mC]*d[5mC]*dA*dG*dG*eG*eT*e[5mC]*eT*e[5mC]) [compound 416487],39%
16,416488 (antisense e[5mC]*eA*eG*eG*eT*d[5mC]*d[5mC]*dT*d[5mC]*d[5mC]*d[5mC]*dA*d[5mC]*dT*dG*e[5mC]*eA*eG*e[5mC]*e[5mC]) [compound 416488],41%
17,416489 (antisense eG*eT*eG*e[5mC]*eA*dG*d[5mC]*dT*dT*dG*d[5mC]*d[5mC]*dA*dG*dG*eT*e[5mC]*e[5mC]*eT*e[5mC]) [compound 416489],38%

# Same assay, conditions: oligonucleotides targeted to nucleobases 13760 to 13789 of SEQ ID NO: 1 (Table 10)
row,Substance,% Inhibition (human Factor 7 mRNA levels)
1,416456 (antisense e[5mC]*eT*eG*e[5mC]*eG*d[5mC]*d[5mC]*dA*d[5mC]*d[5mC]*d[5mC]*dG*d[5mC]*d[5mC]*dG*eG*e[5mC]*eT*e[5mC]*eT) [compound 416456],50%

# Same assay, conditions: oligonucleotides targeted to nucleobases 15098 to 15122 of SEQ ID NO: 1 (Table 12)
row,Substance,% Inhibition (human Factor 7 mRNA levels)
1,416479 (antisense eG*eA*e[5mC]*eA*eG*d[5mC]*dA*d[5mC]*dA*d[5mC]*dA*dT*dG*dG*dA*eG*eT*e[5mC]*eA*eG) [compound 416479],47%
